Data: US8178689B2, “Tricyclic compounds” (Hoffman-La Roche Inc., priority 2010, dated 2012)

Biological target: T1, Recombinant human liver GK1 (GST-GK) (Homo sapiens, UniProt P35557)
T1 construct: made in house; host or cells: E. coli
T1 sequence (P35557 1-466 isoform P35557-2): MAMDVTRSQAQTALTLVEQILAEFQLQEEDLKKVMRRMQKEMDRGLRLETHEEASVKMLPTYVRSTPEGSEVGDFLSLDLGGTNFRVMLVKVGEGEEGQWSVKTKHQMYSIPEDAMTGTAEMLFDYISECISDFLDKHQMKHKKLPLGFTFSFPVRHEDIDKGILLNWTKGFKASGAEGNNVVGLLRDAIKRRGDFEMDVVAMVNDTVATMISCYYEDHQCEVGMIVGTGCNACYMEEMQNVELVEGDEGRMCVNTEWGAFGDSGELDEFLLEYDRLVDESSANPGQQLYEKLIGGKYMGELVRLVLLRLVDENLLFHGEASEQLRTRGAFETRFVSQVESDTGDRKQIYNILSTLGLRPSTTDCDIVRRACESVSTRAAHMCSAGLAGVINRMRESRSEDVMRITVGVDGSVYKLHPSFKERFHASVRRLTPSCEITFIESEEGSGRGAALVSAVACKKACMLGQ
Experiment: In vitro glucokinase activity (G6PDH-coupled NADH generation assay)
Format: biochemical
Set-up: unit not given here
Conditions: concentration of activator that produced a 50% increase in the activity of GK; 5 mM D-glucose, 30° C., pH 7.1, 10% DMSO
Procedure: Glucokinase In Vitro Assay Protocol: Glucokinase (GK) was assayed by coupling the production of glucose-6-phosphate to the generation of NADH with glucose-6-phosphate dehydrogenase (G6PDH, 0.75-1 kunits/mg; Boehringer Mannheim, Indianapolis, Ind.) from Leuconostoc mesenteroides as the coupling enzyme:
Recombinant human liver GK1 was expressed in E. coli as a glutathione S-transferase fusion protein (GST-GK) [Liang et al, 1995]and was purified by chromatography over a glutathione-Sepharose 4B affinity column using the procedure provided by the manufacturer (Amersham Pharmacia Biotech, Piscataway, N.J.).
The assay was conducted at 30° C. in a flat bottom 96-well tissue culture plate from Costar (Cambridge, Mass.) with a final incubation volume of 120 μL. The incubation reaction contained the following: 25 mM Hepes buffer (pH 7.1), 25 mM KCl, 5 mM D-glucose, 1 mM ATP, 1.8 mM NAD, 2 mM MgCl2, 1 μM sorbitol-6-phosphate, 1 mM dithiothreitol, test drug or 10% DMSO, ˜7 units/ml G6PDH, and GK (see below). All organic reagents were >98% pure and were from Boehringer Mannheim with the exceptions of D-glucose and Hepes which were from Sigma Chemical Co, St Louis, Mo. Test compounds were dissolved in DMSO and were added to the incubation reaction minus GST-GK in a volume of 12 μL to yield a final DMSO concentration of 10%. This mix was pre-incubated in the temperature controlled chamber of a SPECTRAmax 250 microplate spectrophotometer (Molecular Devices Corporation, Sunnyvale, Calif.) for 10 minutes to allow temperature equilibrium and then the reaction was started by the addition of 20 μL GST-GK.
After addition of enzyme, the increase in optical density (OD) at 340 nm was monitored spectrophotometrically to determine the rate of change (OD340 per min). The GK activity (OD340/min) in control wells (10% DMSO minus GK activators) was compared with the activity in wells containing test GK activators, and the concentration of activator that produced a 50% increase in the activity of GK, i.e., the SC1.5:0.1, was calculated. The table below provides the in vitro glucokinase activity for the compounds in the Examples: […]

Row | SC 1.5:0.1 | Compound
1 | 0.304 | COc1ccc(OC)c2c1CC1=C(O2)C(=O)N([C@@H](CC2CCCCC2)C(=O)Nc2ccccn2)C1 [Example 13, (S)-3-Cyclohexyl-2-(5,8-dimethoxy-3-oxo-3,9-dihydro-1H-chromeno[2,3-c]pyrrol-2-yl)-N-pyridin-2-yl-propionamide]
2 | 4.181 | O=C(Nc1nccs1)[C@H](CC1CCCCC1)N1CC2=C(Oc3c(Cl)cccc3C2)C1=O [Example 21, (S)-2-(5-Chloro-3-oxo-3,9-dihydro-1H-chromeno[2,3-c]pyrrol-2-yl)-3-cyclohexyl-N-thiazol-2-yl-propionamide]
3 | 0.292 | COc1cccc2c1CC1=C(O2)C(=O)N([C@@H](CC2CCCCC2)C(=O)Nc2ccc(Cl)cn2)C1 [Example 8, (S)—N-(5-Chloro-pyridin-2-yl)-3-cyclohexyl-2-(8-methoxy-3-oxo-3,9-dihydro-1H-chromeno[2,3-c]pyrrol-2-yl)-propionamide]
4 | 11.865 | CC(C)C[C@@H](C(=O)Nc1ccccn1)N1CC2=C(Oc3c(Cl)cccc3C2)C1=O [Example 23, (S)-2-(5-Chloro-3-oxo-3,9-dihydro-1H-chromeno[2,3-c]pyrrol-2-yl)-4-methyl-pentanoic acid pyridin-2-ylamide]
5 | 1.311 | O=C(Nc1ccccn1)[C@H](CC1CCCCC1)N1CC2=C(Oc3cccc(Cl)c3C2)C1=O [Example 1, (S)-2-(8-Chloro-3-oxo-3,9-dihydro-1H-chromeno[2,3-c]pyrrol-2-yl)-3-cyclohexyl-N-pyridin-2-yl-propionamide]
6 | 4.051 | O=C(Nc1nccs1)[C@H](CC1CCCCC1)N1CC2=C(Oc3cccc(Cl)c3C2)C1=O [Example 2, (S)-2-(8-Chloro-3-oxo-3,9-dihydro-1H-chromeno[2,3-c]pyrrol-2-yl)-3-cyclohexyl-N-thiazol-2-yl-propionamide]
7 | 0.333 | COc1cccc2c1CC1=C(O2)C(=O)N([C@@H](CC2CCCCC2)C(=O)Nc2ccccn2)C1 [Example 7, (S)-3-Cyclohexyl-2-(8-methoxy-3-oxo-3,9-dihydro-1H-chromeno[2,3-c]pyrrol-2-yl)-N-pyridin-2-yl-propionamide]
8 | 2.423 | O=C(Nc1ccccn1)[C@H](CC1CCCCC1)N1CC2=C(Oc3c(Cl)cccc3C2)C1=O [Example 20, (S)-2-(5-Chloro-3-oxo-3,9-dihydro-1H-chromeno[2,3-c]pyrrol-2-yl)-3-cyclohexyl-N-pyridin-2-yl-propionamide]

Further lines, the compound ahead of its results:

Row | Compound | SC 1.5:0.1
9 | CC(C)C[C@@H](C(=O)Nc1ccccn1)N1CC2=C(Oc3cccc(Cl)c3C2)C1=O [Example 3, (S)-2-(8-Chloro-3-oxo-3,9-dihydro-1H-chromeno[2,3-c]pyrrol-2-yl)-4-methyl-pentanoic acid pyridin-2-ylamide] | 4.602
10 | COc1ccc(OC)c2c1CC1=C(O2)C(=O)N([C@@H](CC(C)C)C(=O)Nc2ccccn2)C1 [Example 18, (S)-2-(5,8-Dimethoxy-3-oxo-3,9-dihydro-1H-chromeno[2,3-c]pyrrol-2-yl)-4-methyl-pentanoic acid pyridin-2-ylamide] | 2.532
11 | CC(C)C[C@@H](C(=O)Nc1nccs1)N1CC2=C(Oc3cccc(Cl)c3C2)C1=O [Example 5, (S)-2-(8-Chloro-3-oxo-3,9-dihydro-1H-chromeno[2,3-c]pyrrol-2-yl)-4-methyl-pentanoic acid thiazol-2-ylamide] | 9.277
12 | COC(=O)c1ccc(NC(=O)[C@H](CC(C)C)N2CC3=C(Oc4cccc(Cl)c4C3)C2=O)nc1 [Example 6, 6-[(S)-2-(8-Chloro-3-oxo-3,9-dihydro-1H-chromeno[2,3-c]pyrrol-2-yl)-4-methyl-pentanoylamino]-nicotinic acid methyl ester] | 3.324
13 | COc1ccc(OC)c2c1CC1=C(O2)C(=O)N([C@@H](CC2CCCCC2)C(=O)Nc2nccs2)C1 [Example 16, (S)-3-Cyclohexyl-2-(5,8-dimethoxy-3-oxo-3,9-dihydro-1H-chromeno[2,3-c]pyrrol-2-yl)-N-thiazol-2-yl-propionamide] | 2.439
14 | COc1ccc(OC)c2c1CC1=C(O2)C(=O)N([C@@H](CC2CCCCC2)C(=O)Nc2ccc(Cl)cn2)C1 [Example 15, (S)—N-(5-Chloro-pyridin-2-yl)-3-cyclohexyl-2-(5,8-dimethoxy-3-oxo-3,9-dihydro-1H-chromeno[2,3-c]pyrrol-2-yl)-propionamide] | 0.428
15 | COC(=O)c1ccc(NC(=O)[C@H](CC(C)C)N2CC3=C(Oc4c(Cl)cccc4C3)C2=O)nc1 [Example 22, 6-[(S)-2-(5-Chloro-3-oxo-3,9-dihydro-1H-chromeno[2,3-c]pyrrol-2-yl)-4-methyl-pentanoylamino]-nicotinic acid methyl ester] | 9.858
16 | CC(C)C[C@@H](C(=O)Nc1nccs1)N1CC2=C(Oc3c(Cl)cccc3C2)C1=O [Example 24, (S)-2-(5-Chloro-3-oxo-3,9-dihydro-1H-chromeno[2,3-c]pyrrol-2-yl)-4-methyl-pentanoic acid thiazol-2-ylamide] | 18.957
17 | COC(=O)c1ccc(NC(=O)[C@H](CC2CCCCC2)N2CC3=C(Oc4cccc(OC)c4C3)C2=O)nc1 [Example 10, 6-[(S)-3-Cyclohexyl-2-(8-methoxy-3-oxo-3,9-dihydro-1H-chromeno[2,3-c]pyrrol-2-yl)-propionylamino]-nicotinic acid methyl ester] | 0.302
18 | COC(=O)c1ccc(NC(=O)[C@H](CC2CCCCC2)N2CC3=C(Oc4c(OC)ccc(OC)c4C3)C2=O)nc1 [Example 17, 6-[(S)-3-Cyclohexyl-2-(5,8-dimethoxy-3-oxo-3,9-dihydro-1H-chromeno[2,3-c]pyrrol-2-yl)-propionylamino]-nicotinic acid methyl ester] | 0.219
19 | COc1cccc2c1CC1=C(O2)C(=O)N([C@@H](CC(C)C)C(=O)Nc2nccs2)C1 [Example 11, (S)-2-(8-Methoxy-3-oxo-3,9-dihydro-1H-chromeno[2,3-c]pyrrol-2-yl)-4-methyl-pentanoic acid thiazol-2-ylamide] | 8.123
20 | COc1cccc2c1CC1=C(O2)C(=O)N([C@@H](CC2CCCCC2)C(=O)Nc2ccn(C[C@@H](O)CO)n2)C1 [Example 25, (S)-3-Cyclohexyl-N-[1-((R)-2,3-dihydroxy-propyl)-1H-pyrazol-3-yl]-2-(8-methoxy-3-oxo-3,9-dihydro-1H-chromeno[2,3-c]pyrrol-2-yl)-propionamide] | 0.507
21 | COc1cccc2c1CC1=C(O2)C(=O)N([C@@H](CC2CCCCC2)C(=O)Nc2nccs2)C1 [Example 9, (S)-3-Cyclohexyl-2-(8-methoxy-3-oxo-3,9-dihydro-1H-chromeno[2,3-c]pyrrol-2-yl)-N-thiazol-2-yl-propionamide] | 0.746
22 | CC(C)C[C@@H](C(=O)Nc1ccc(Cl)cn1)N1CC2=C(Oc3cccc(Cl)c3C2)C1=O [Example 4, (S)-2-(8-Chloro-3-oxo-3,9-dihydro-1H-chromeno[2,3-c]pyrrol-2-yl)-4-methyl-pentanoic acid (5-chloro-pyridin-2-yl)-amide] | 3.18
23 | COc1ccc(OC)c2c1CC1=C(O2)C(=O)N([C@@H](CC(C)C)C(=O)Nc2ccc(Cl)cn2)C1 [Example 14, (S)-2-(5,8-Dimethoxy-3-oxo-3,9-dihydro-1H-chromeno[2,3-c]pyrrol-2-yl)-4-methyl-pentanoic acid (5-chloro-pyridin-2-yl)-amide] | 0.911
24 | COC(=O)c1ccc(NC(=O)[C@H](CC(C)C)N2CC3=C(Oc4cccc(OC)c4C3)C2=O)nc1 [Example 12, 6-[(S)-2-(8-Methoxy-3-oxo-3,9-dihydro-1H-chromeno[2,3-c]pyrrol-2-yl)-4-methyl-pentanoylamino]-nicotinic acid methyl ester] | 0.906
25 | COC(=O)c1ccc(NC(=O)[C@H](CC(C)C)N2CC3=C(Oc4c(OC)ccc(OC)c4C3)C2=O)nc1 [Example 19, 6-[(S)-2-(5,8-Dimethoxy-3-oxo-3,9-dihydro-1H-chromeno[2,3-c]pyrrol-2-yl)-4-methyl-pentanoylamino]-nicotinic acid methyl ester] | 0.803
